Measured values from the supplement of paper PMC10307832.

What was measured:
Experiment in all cases: relative viability (nuclei count vs DMSO), 5 days (fraction); higher = more cells survive
[1] = compound: COC1=CC=C(C=C1)CN2C=CC3=C2C=C(C=C3)C(=O)NO + Cc1nc(NC(=O)N2CCC[C@H]2C(N)=O)sc1-c1ccnc(C(C)(C)C(F)(F)F)c1 [Alpelisib] (partner 2 µM)
Procedure, shortened: (§1)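 Relative viability is defined as nuclei in treated wells over nuclei in vehicle wells. Duplicate plates were run and medians reported. Lung cancer cell lines in 1536-well plates were dosed by pin tool one day after seeding, with one drug or with a fixed anchor-drug dose plus five library-drug doses (not always all listed) in √10 steps, and nuclei were counted after 5 days.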

Veliparib + Palbociclib = compound: C[C@]1(c2nc3c(C(N)=O)cccc3[nH]2)CCCN1 [Veliparib] + CC(=O)c1c(C)c2cnc(Nc3ccc(N4CCNCC4)cn3)nc2n(C2CCCC2)c1=O [Palbociclib] (partner 0.5 µM)
Procedure, shortened: as §1

Veliparib + Bortezomib = compound: C[C@]1(c2nc3c(C(N)=O)cccc3[nH]2)CCCN1 [Veliparib] + CC(C)C[C@H](NC(=O)[C@H](Cc1ccccc1)NC(=O)c1cnccn1)B(O)O [Bortezomib] (partner 0.002 µM)
Procedure, shortened: as §1

Veliparib + AZD7762 = compound: C[C@]1(c2nc3c(C(N)=O)cccc3[nH]2)CCCN1 [Veliparib] + NC(=O)Nc1cc(-c2cccc(F)c2)sc1C(=O)N[C@H]1CCCNC1 [AZD7762] (partner 0.2 µM)
Procedure, shortened: as §1

Row | Cell Line | relative viability ([1]; first compound 0.08 µM) | relative viability ([1]; first compound 0.253 µM) | relative viability ([1]; first compound 0.8 µM) | relative viability ([1]; first compound 2.53 µM) | relative viability ([1]; first compound 8 µM) | relative viability (Veliparib + Palbociclib; first compound 0.02 µM) | relative viability (Veliparib + Palbociclib; first compound 0.06325 µM) | relative viability (Veliparib + Palbociclib; first compound 0.2 µM) | relative viability (Veliparib + Palbociclib; first compound 0.6325 µM) | relative viability (Veliparib + Palbociclib; first compound 2 µM) | relative viability (Veliparib + Bortezomib; first compound 0.02 µM) | relative viability (Veliparib + Bortezomib; first compound 0.06325 µM) | relative viability (Veliparib + Bortezomib; first compound 0.2 µM) | relative viability (Veliparib + Bortezomib; first compound 0.6325 µM) | relative viability (Veliparib + Bortezomib; first compound 2 µM) | relative viability (Veliparib + AZD7762; first compound 0.02 µM) | relative viability (Veliparib + AZD7762; first compound 0.06325 µM) | relative viability (Veliparib + AZD7762; first compound 0.2 µM) | relative viability (Veliparib + AZD7762; first compound 0.6325 µM) | relative viability (Veliparib + AZD7762; first compound 2 µM)
1 | HCC-15 | 0.74 | 0.989 | 0.898 | 0.93 | 0.853 | 0.679 | 0.675 | 0.782 | 0.703 | 0.718 | 0.781 | 1.02 | 0.991 | 0.932 | 0.984 | 1.24 | 1.13 | 1.11 | 1.37 | 1.28
2 | NCI-H1651 | 0.993 | 1.06 | 0.964 | 0.789 | 0.723 | 0.513 | 0.497 | 0.52 | 0.499 | 0.485 | 0.924 | 0.883 | 0.908 | 0.918 | 0.876 | 0.455 | 0.424 | 0.419 | 0.46 | 0.412
3 | CAL-12T | 1.22 | 1.31 | 1.19 | 1.19 | 1.24 | 0.179 | 0.301 | 0.402 | 0.382 | 0.58 | 0.862 | 0.72 | 0.952 | 1.18 | 0.971 | 0.668 | 0.591 | 0.661 | 0.627 | 0.741
4 | LK-2 | – | 1.11 | 0.896 | 1.13 | 0.907 | 0.662 | 0.608 | 0.707 | 0.616 | 0.779 | – | – | – | – | – | 0.32 | 0.367 | 0.461 | 0.465 | 0.492
5 | NCI-H1703 | 0.337 | 0.324 | 0.328 | 0.344 | 0.381 | – | – | – | – | – | 0.366 | 0.308 | 0.408 | 0.354 | 0.426 | 0.0963 | 0.11 | 0.112 | 0.138 | 0.13
6 | NCI-H520 | 0.43 | 1.16 | 0.887 | 0.904 | 0.853 | 0.24 | 0.239 | 0.254 | 0.212 | 0.223 | 0.532 | 0.67 | 0.791 | 0.608 | 0.643 | – | – | – | – | –
7 | NCI-H1648 | – | – | – | – | – | 0.257 | – | – | 0.232 | 0.274 | – | – | – | – | – | 0.762 | – | – | 0.711 | 0.685
8 | EBC-1 | 0.817 | 0.842 | 0.848 | 0.815 | 0.737 | – | – | – | – | – | 0.615 | 0.539 | 0.527 | 0.479 | 0.57 | – | – | – | – | –
9 | NCI-H1395 | 0.708 | 1.1 | 1.11 | 0.979 | 0.967 | 0.606 | 0.58 | 0.614 | 0.565 | 0.554 | – | – | – | – | – | 0.454 | 0.359 | 0.411 | 0.405 | 0.405
10 | COR-L 105 | – | 0.93 | 1.04 | 0.942 | 0.929 | 0.402 | 0.47 | 0.4 | 0.375 | 0.444 | 0.735 | 0.633 | 0.548 | 0.783 | 0.83 | – | – | – | – | –
11 | ChaGo-K-1 | – | – | – | – | – | 0.712 | 0.951 | 1.02 | 0.892 | 0.944 | – | 0.863 | 1.09 | 1.05 | 0.804 | 0.73 | 0.854 | 0.83 | 0.83 | 0.824
